Source: PubChem BioAssay AID256 (DTP/NCI, 2004)
Several values for one entry are separate records, joined by “and”; a condition that tells them apart may be missing. Equal values may be shown once. Inconclusive results and toxic doses are left out.

System: CD2F1 mice, L1210 leukemia ip, survival T/C
Experiment: NCI In Vivo Anticancer Drug Screen. Data for tumor model L1210 Leukemia (intraperitoneal) in CD2F1 (CDF1) mice
Conditions: higher = longer survival
Procedure, shortened: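 Ratio T/C, where T is the treated-group value and C the vehicle-dosed control value, from mice implanted with a transplantable tumor.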

[1] = endpoint: mean survival time, dose: 100.0 mg/kg/injection, schedule: Q04DX002 (ip), vehicle: saline with Tween-80
[2] = endpoint: mean survival time, dose: 200.0 mg/kg/injection, schedule: Q04DX002 (ip), vehicle: saline with Tween-80
[3] = endpoint: mean survival time, dose: 400.0 mg/kg/injection, schedule: Q04DX002 (ip), vehicle: saline with Tween-80
[4] = endpoint: mean survival time, dose: 100.0 mg/kg/injection, schedule: Q01DX001 (ip), vehicle: saline with Tween-80
[5] = endpoint: mean survival time, dose: 200.0 mg/kg/injection, schedule: Q01DX001 (ip), vehicle: saline with Tween-80
[6] = endpoint: mean survival time, dose: 100.0 mg/kg/injection, schedule: Q04DX003 (ip), vehicle: saline
[7] = endpoint: mean survival time, dose: 100.0 mg/kg/injection, schedule: Q01DX009 (ip), vehicle: saline with Tween-80
[8] = endpoint: mean survival time, dose: 200.0 mg/kg/injection, schedule: Q01DX009 (ip), vehicle: saline with Tween-80
[9] = endpoint: mean survival time, dose: 400.0 mg/kg/injection, schedule: Q01DX009 (ip), vehicle: saline with Tween-80
[10] = endpoint: mean survival time, dose: 25.0 mg/kg/injection, schedule: Q01DX009 (ip), vehicle: saline with Tween-80
[11] = endpoint: mean survival time, dose: 50.0 mg/kg/injection, schedule: Q01DX009 (ip), vehicle: saline with Tween-80
[12] = endpoint: mean survival time, dose: 6.25 mg/kg/injection, schedule: Q04DX003 (ip), vehicle: saline with Tween-80
[13] = endpoint: mean survival time, dose: 12.5 mg/kg/injection, schedule: Q04DX003 (ip), vehicle: saline with Tween-80
[14] = endpoint: mean survival time, dose: 25.0 mg/kg/injection, schedule: Q04DX003 (ip), vehicle: saline with Tween-80
[15] = endpoint: mean survival time, dose: 100.0 mg/kg/injection, schedule: Q01DX001 (ip), vehicle: Klucel (hydroxypropylcellulose) (HPC)
[16] = endpoint: mean survival time, dose: 200.0 mg/kg/injection, schedule: Q01DX001 (ip), vehicle: Klucel (hydroxypropylcellulose) (HPC)
[17] = endpoint: mean survival time, dose: 400.0 mg/kg/injection, schedule: Q01DX001 (ip), vehicle: Klucel (hydroxypropylcellulose) (HPC)
[18] = endpoint: mean survival time, dose: 100.0 mg/kg/injection, schedule: Q04DX003 (ip), vehicle: saline with Tween-80
[19] = endpoint: mean survival time, dose: 200.0 mg/kg/injection, schedule: Q04DX003 (ip), vehicle: saline with Tween-80
[20] = endpoint: mean survival time, dose: 400.0 mg/kg/injection, schedule: Q04DX003 (ip), vehicle: saline with Tween-80
[21] = endpoint: mean survival time, dose: 50.0 mg/kg/injection, schedule: Q04DX003 (ip), vehicle: saline with Tween-80

## O=c1[nH]cc(Br)c(=O)[nH]1
[1]
  T/C: 101 % of control
[2]
  T/C: 97 % of control
[3]
  T/C: 106 % of control

## CS(=O)(=O)c1cccnn1
endpoint: mean survival time, dose: 100.0 mg/kg/injection, schedule: Q04DX003 (ip), vehicle: saline sonified
  T/C: 93 % of control
endpoint: mean survival time, dose: 200.0 mg/kg/injection, schedule: Q04DX003 (ip), vehicle: saline sonified
  T/C: 98 % of control
endpoint: mean survival time, dose: 400.0 mg/kg/injection, schedule: Q04DX003 (ip), vehicle: saline sonified
  T/C: 96 % of control

## S=c1sc2ccccc2n1CN1CCCCC1
[4]
  T/C: 100 % of control
[5]
  T/C: 100 % of control
endpoint: mean survival time, dose: 400.0 mg/kg/injection, schedule: Q01DX001 (ip), vehicle: saline with Tween-80
  T/C: 108 % of control

## O=C1CN2CCC1CC2
[6]
  T/C: 102 % of control
endpoint: mean survival time, dose: 200.0 mg/kg/injection, schedule: Q04DX003 (ip), vehicle: saline
  T/C: 107 % of control

## CCOP(=O)(OCC)C1=C(SCC)C(F)(F)C(F)(F)C1(F)F
endpoint: mean survival time, dose: 75.0 mg/kg/injection, schedule: Q01DX001 (ip), vehicle: other
  T/C: 104 % of control

## CC(NC=O)c1c[nH]c(=O)[nH]c1=O (stereo not given)
[7]
  T/C: 100 % of control
[8]
  T/C: 97 % of control
[9]
  T/C: 97 % of control

## CCN(CC)CCNC1CCCCC1
[10]
  T/C: 96 % of control
endpoint: mean survival time, dose: 25.0 mg/kg/injection, schedule: Q04DX003 (ip), vehicle: saline
  T/C: 97 % of control
[11]
  T/C: 96 % of control
endpoint: mean survival time, dose: 50.0 mg/kg/injection, schedule: Q04DX003 (ip), vehicle: saline
  T/C: 100 % of control
[7]
  T/C: 96 % of control
[6]
  T/C: 94 % of control

## [CH3][Tl]([CH3])[Br]
[1]
  T/C: 100 % of control
[2]
  T/C: 96 % of control
[3]
  T/C: 96 % of control

## CC[C@@]1(OC(=O)CCC(=O)O)C(=O)OCc2c1cc1n(c2=O)Cc2cc3ccccc3nc2-1
endpoint: median survival time, dose: 5.86 mg/kg/injection, schedule: Q04DX002 (ip), vehicle: water
  T/C: 118 % of control
endpoint: median survival time, dose: 8.79 mg/kg/injection, schedule: Q04HX004 (iv), vehicle: water
  T/C: 154 % of control
endpoint: median survival time, dose: 11.73 mg/kg/injection, schedule: Q04DX002 (ip), vehicle: water
  T/C: 120 % of control
endpoint: median survival time, dose: 17.59 mg/kg/injection, schedule: Q04HX004 (iv), vehicle: water
  T/C: 167 % of control and 180 % of control
endpoint: median survival time, dose: 35.18 mg/kg/injection, schedule: Q04HX004 (iv), vehicle: water
  T/C: 197 % of control and 228 % of control
endpoint: median survival time, dose: 46.9 mg/kg/injection, schedule: Q04DX002 (ip), vehicle: water
  T/C: 192 % of control and 200 % of control
endpoint: median survival time, dose: 93.8 mg/kg/injection, schedule: Q04DX002 (ip), vehicle: water
  T/C: 231 % of control

## O=c1n(C2OC(CO)C(O)C2O)ccc2nnnn12 (stereo not given)
endpoint: mean survival time, dose: 12.5 mg/kg/injection, schedule: Q01DX005 (ip), vehicle: distilled water + Tween-80
  T/C: 100 % of control
endpoint: mean survival time, dose: 25.0 mg/kg/injection, schedule: Q01DX005 (ip), vehicle: distilled water + Tween-80
  T/C: 96 % of control
endpoint: mean survival time, dose: 50.0 mg/kg/injection, schedule: Q01DX005 (ip), vehicle: distilled water + Tween-80
  T/C: 100 % of control
endpoint: mean survival time, dose: 100.0 mg/kg/injection, schedule: Q01DX005 (ip), vehicle: distilled water + Tween-80
  T/C: 96 % of control
endpoint: mean survival time, dose: 200.0 mg/kg/injection, schedule: Q01DX005 (ip), vehicle: distilled water + Tween-80
  T/C: 102 % of control

## CCCCCCCC/C=C/CCCCCCCC(=O)NCCCCCCNC(=O)CCCCCCC/C=C/CCCCCCCC
endpoint: mean survival time, dose: 100.0 mg/kg/injection, schedule: Q01DX001 (ip), vehicle: other
  T/C: 94 % of control
endpoint: mean survival time, dose: 200.0 mg/kg/injection, schedule: Q01DX001 (ip), vehicle: other
  T/C: 97 % of control
endpoint: mean survival time, dose: 400.0 mg/kg/injection, schedule: Q01DX001 (ip), vehicle: other
  T/C: 102 % of control

## C#CCNC1=C(C)C(=O)C2=C(C1=O)[C@H](COC(N)=O)[C@]1(OC)[C@H]3[C@@H](CN21)N3C (stereo not given in full)
endpoint: mean survival time, dose: 3.0 mg/kg/injection, schedule: Q01DX001 (ip), vehicle: distilled water + Tween-80
  T/C: 97 % of control
endpoint: mean survival time, dose: 6.0 mg/kg/injection, schedule: Q01DX001 (ip), vehicle: distilled water + Tween-80
  T/C: 95 % of control
endpoint: mean survival time, dose: 12.0 mg/kg/injection, schedule: Q01DX001 (ip), vehicle: distilled water + Tween-80
  T/C: 101 % of control
endpoint: mean survival time, dose: 24.0 mg/kg/injection, schedule: Q01DX001 (ip), vehicle: distilled water + Tween-80
  T/C: 110 % of control
endpoint: mean survival time, dose: 48.0 mg/kg/injection, schedule: Q01DX001 (ip), vehicle: distilled water + Tween-80
  T/C: 118 % of control

## C/C=C(/Cl)C(=O)O
[4]
  T/C: 100 % of control
[5]
  T/C: 101 % of control

## CCCC(O)C(N)CC (stereo not given)
endpoint: mean survival time, dose: 100.0 mg/kg/injection, schedule: Q01DX001 (ip), vehicle: saline
  T/C: 98 % of control
endpoint: mean survival time, dose: 200.0 mg/kg/injection, schedule: Q01DX001 (ip), vehicle: saline
  T/C: 90 % of control

## N#C/C(=C\c1ccco1)c1ccc([N+](=O)[O-])cc1
[12]
  T/C: 102 % of control
[13]
  T/C: 102 % of control
[14]
  T/C: 100 % of control
[15]
  T/C: 106 % of control
[16]
  T/C: 95 % of control
[17]
  T/C: 94 % of control

## O=C(O)c1ccccc1C(=O)CC(O)(C(F)(F)F)C(F)(F)F
[18]
  T/C: 101 % of control
[19]
  T/C: 97 % of control
[20]
  T/C: 102 % of control

## O=C(O)Cc1ccccc1C(=O)O
endpoint: mean survival time, dose: 100.0 mg/kg/injection, schedule: Q04DX003 (ip), vehicle: Klucel (hydroxypropylcellulose) (HPC)
  T/C: 96 % of control
endpoint: mean survival time, dose: 200.0 mg/kg/injection, schedule: Q04DX003 (ip), vehicle: Klucel (hydroxypropylcellulose) (HPC)
  T/C: 104 % of control
endpoint: mean survival time, dose: 400.0 mg/kg/injection, schedule: Q04DX003 (ip), vehicle: Klucel (hydroxypropylcellulose) (HPC)
  T/C: 96 % of control

## O=S(=O)(O)C1CCC(O)C2[N-]CCCC21.O=S(=O)(O)C1CCC(O)C2[N-]CCCC21.[Zn+2] (stereo not given)
[7]
  T/C: 95 % of control
[18]
  T/C: 96 % of control
[19]
  T/C: 93 % of control
[9]
  T/C: 86 % of control
[20]
  T/C: 96 % of control

## CC[As](=O)(O)c1ccc([N+](=O)[O-])cc1
endpoint: mean survival time, dose: 25.0 mg/kg/injection, schedule: Q01DX001 (ip), vehicle: saline with Tween-80
  T/C: 98 % of control
endpoint: mean survival time, dose: 50.0 mg/kg/injection, schedule: Q01DX001 (ip), vehicle: saline with Tween-80
  T/C: 96 % of control

## CCN(CC)CCOc1ccc(/C(=C(\Cl)c2ccccc2)c2ccccc2)cc1
endpoint: mean survival time, dose: 3.12 mg/kg/injection, schedule: Q04DX003 (ip), vehicle: saline with Tween-80
  T/C: 100 % of control
endpoint: mean survival time, dose: 3.13 mg/kg/injection, schedule: Q01DX009 (ip), vehicle: saline with Tween-80
  T/C: 104 % of control
endpoint: mean survival time, dose: 6.25 mg/kg/injection, schedule: Q01DX009 (ip), vehicle: saline with Tween-80
  T/C: 102 % of control
[12]
  T/C: 94 % of control
endpoint: mean survival time, dose: 12.5 mg/kg/injection, schedule: Q01DX009 (ip), vehicle: saline with Tween-80
  T/C: 105 % of control
[13]
  T/C: 97 % of control
[10]
  T/C: 107 % of control
[14]
  T/C: 97 % of control
[11]
  T/C: 91 % of control
[21]
  T/C: 100 % of control
[18]
  T/C: 105 % of control

## CCCCCC(=O)N1CCOCC1
[14]
  T/C: 98 % of control
[21]
  T/C: 98 % of control
[18]
  T/C: 104 % of control and 112 % of control
[19]
  T/C: 102 % of control
[20]
  T/C: 100 % of control

## O=C(/C=C(\Br)c1ccccc1)c1ccccc1
[1]
  T/C: 91 % of control

## CN1c2ccccc2N(C)c2ccccc21
[7]
  T/C: 94 % of control
[18]
  T/C: 101 % of control
[19]
  T/C: 98 % of control
[20]
  T/C: 96 % of control

## CC(C)C1OC(C(F)(F)F)(C(F)(F)Cl)CC1=O (stereo not given)
[15]
  T/C: 86 % of control
[16]
  T/C: 97 % of control
[17]
  T/C: 98 % of control

## CC(C)OC(=O)CCl
[4]
  T/C: 100 % of control
[5]
  T/C: 100 % of control

## Nc1nc(N)nc(C(=O)CCC(=O)O)n1
[11]
  T/C: 95 % of control
[7]
  T/C: 95 % of control
[8]
  T/C: 95 % of control

## Nc1ncnc2nc(SCc3ccccc3)[nH]c12
endpoint: mean survival time, dose: 12.5 mg/kg/injection, schedule: Q01DX009 (ip), vehicle: Klucel (hydroxypropylcellulose) (HPC)
  T/C: 112 % of control
endpoint: mean survival time, dose: 25.0 mg/kg/injection, schedule: Q01DX009 (ip), vehicle: Klucel (hydroxypropylcellulose) (HPC)
  T/C: 104 % of control
endpoint: mean survival time, dose: 50.0 mg/kg/injection, schedule: Q01DX009 (ip), vehicle: Klucel (hydroxypropylcellulose) (HPC)
  T/C: 100 % of control
[15]
  T/C: 90 % of control
